Measured values: patent publication US8999940B2 (Ipsen Pharma S.A.S., priority 2008, dated 2015)

Assays:
[1] = molecular target: T1, human recombinant GIP receptor (Homo sapiens, UniProt P48546); experiment: In vitro hGIP receptor binding assay
T1 construct: expressed in transfected cells; host or cells: CHO-K1 clonal cells (membrane preparation)
T1 sequence (P48546 22-466): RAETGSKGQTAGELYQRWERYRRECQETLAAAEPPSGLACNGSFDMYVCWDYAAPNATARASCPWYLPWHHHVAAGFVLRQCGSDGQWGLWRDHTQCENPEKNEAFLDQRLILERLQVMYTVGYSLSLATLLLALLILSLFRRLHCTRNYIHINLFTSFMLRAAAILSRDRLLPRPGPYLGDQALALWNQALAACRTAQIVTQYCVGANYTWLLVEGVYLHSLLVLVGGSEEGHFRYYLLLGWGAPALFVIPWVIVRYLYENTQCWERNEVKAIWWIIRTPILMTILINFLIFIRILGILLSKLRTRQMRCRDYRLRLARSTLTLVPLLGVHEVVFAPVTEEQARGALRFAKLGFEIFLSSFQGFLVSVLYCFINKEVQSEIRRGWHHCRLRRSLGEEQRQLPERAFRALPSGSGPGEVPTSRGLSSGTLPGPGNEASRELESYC
Description: A. In Vitro hGIP Receptor Binding Assay […] The incubations were terminated by rapid filtration through GF/C filters (pre-soaked in 0.5% polyethylenimine) using a Brandel filtration manifold. Each tube and filter were then washed three times with 5-ml aliquots of ice-cold buffer.

[2] = Human plasma half-life assay; format: in vitro ADME; conditions: 37° C., LC-MS, read-out: Human Plasma T½ (converted)
[3] = Rat plasma half-life assay; format: in vitro ADME; conditions: 37° C., LC-MS, read-out: Rat Plasma T½ (converted)

In the case of `CC[C@H](C)[C@H](NC(=O)[C@H](CCCCN)NC(=O)[C@H](CC(=O)O)NC(=O)C1(NC(=O)[C@H](C)NC(=O)[C@@H](NC(=O)C2(NC(=O)[C@H](Cc3ccc(O)cc3)NC(=O)[C@H](CC(=O)O)NC(=O)[C@H](CO)NC(=O)[C@@H](NC(=O)[C@H](Cc3ccccc3)NC(=O)[C@@H](NC(=O)CNC(=O)[C@H](CCC(=O)O)NC(=O)C(C)(C)NC(=O)[C@@H](N)Cc3ccc(O)c(OC)c3)[C@@H](C)O)[C@@H](C)CC)CCCC2)[C@@H](C)CC)CCCC1)C(=O)N[C@@H](Cc1c[nH]cn1)C(=O)N[C@@H](CCC(N)=O)C(=O)N[C@@H](CCC(N)=O)C(=O)N[C@@H](CC(=O)O)C(=O)N[C@@H](Cc1ccccc1)C(=O)N[C@H](C(=O)N[C@@H](CC(N)=O)C(=O)N[C@@H](Cc1c[nH]c2ccccc12)C(=O)N[C@@H](CC(C)C)C(=O)N[C@@H](CC(C)C)C(=O)N[C@@H](C)C(=O)N[C@@H](CCC(N)=O)C(=O)N[C@@H](CCCCN)C(=O)NCC(=O)N[C@@H](CCCCN)C(=O)N[C@@H](CCCCN)C(=O)N[C@@H](CC(N)=O)C(=O)N[C@@H](CC(=O)O)C(=O)N[C@@H](Cc1c[nH]c2ccccc12)C(=O)N[C@@H](CCCCN)C(=O)N[C@@H](Cc1c[nH]cn1)C(=O)N[C@@H](CC(N)=O)C(=O)N[C@H](C(=O)N[C@H](C(=O)N[C@@H](CCC(N)=O)C(=O)N[C@@H](Cc1c[nH]cn1)C(=O)O)[C@@H](C)O)[C@@H](C)CC)C(C)C` [Example 74, (3MeO-Tyr^1, Aib^2, A5c^11, 14, His^43)hGIP(1-43)-OH], the Ki [1] is reported as 9.34 nM, the half-life at 0.1 mg/ml [2] is reported as > 3000 min and the half-life at 0.1 mg/ml [3] is reported as 768 min.
With `CC[C@H](C)[C@H](NC(=O)[C@H](CCCCN)NC(=O)[C@H](CC(=O)O)NC(=O)[C@H](CCSC)NC(=O)[C@H](C)NC(=O)[C@@H](NC(=O)C1(NC(=O)[C@H](Cc2ccc(O)cc2)NC(=O)[C@H](CC(=O)O)NC(=O)[C@H](CO)NC(=O)[C@@H](NC(=O)[C@H](Cc2ccccc2)NC(=O)[C@@H](NC(=O)CNC(=O)[C@H](CCC(=O)O)NC(=O)C(C)(C)NC(=O)[C@@H](N)Cc2cccnc2)[C@@H](C)O)[C@@H](C)CC)CCCC1)[C@@H](C)CC)C(=O)N[C@@H](Cc1c[nH]cn1)C(=O)N[C@@H](CCC(N)=O)C(=O)N[C@@H](CCC(N)=O)C(=O)N[C@@H](CC(=O)O)C(=O)N[C@@H](Cc1ccccc1)C(=O)N[C@H](C(=O)N[C@@H](CC(N)=O)C(=O)N[C@@H](Cc1c[nH]c2ccccc12)C(=O)N[C@@H](CC(C)C)C(=O)N[C@@H](CC(C)C)C(=O)N[C@@H](C)C(=O)N[C@@H](CCC(N)=O)C(=O)N[C@@H](CCCCN)C(=O)NCC(=O)N[C@@H](CCCCN)C(=O)N[C@@H](CCCCN)C(=O)N[C@@H](CC(N)=O)C(=O)N[C@@H](CC(=O)O)C(=O)N[C@@H](Cc1c[nH]c2ccccc12)C(=O)N[C@@H](CCCCN)C(=O)N[C@@H](Cc1c[nH]cn1)C(=O)N[C@@H](CC(N)=O)C(=O)N[C@H](C(=O)NC1(C(=O)N[C@@H](CCC(N)=O)C(=O)O)CCCC1)[C@@H](C)CC)C(C)C` [Example 34, (3-Pal^1, Aib^2, A5c^11, 41)hGIP(1-42)-OH] the Ki [1] was 9.75 nM, the half-life at 0.1 mg/ml [2] was > 3780 min and the half-life at 0.1 mg/ml [3] was 978 min.
For `CCCC[C@H](NC(=O)[C@H](C)NC(=O)[C@@H](NC(=O)C1(NC(=O)[C@H](Cc2ccc(O)cc2)NC(=O)[C@H](CC(=O)O)NC(=O)[C@H](CO)NC(=O)[C@@H](NC(=O)[C@H](Cc2ccccc2)NC(=O)[C@@H](NC(=O)CNC(=O)[C@H](CCC(=O)O)NC(=O)C(C)(C)NC(=O)[C@@H](N)Cc2cc(I)c(O)c(I)c2)[C@@H](C)O)[C@@H](C)CC)CCCC1)[C@@H](C)CC)C(=O)N[C@@H](CC(=O)O)C(=O)N[C@@H](CCCCN)C(=O)N[C@H](C(=O)N[C@@H](Cc1c[nH]cn1)C(=O)N[C@@H](CCC(N)=O)C(=O)N[C@@H](CCC(N)=O)C(=O)N[C@@H](CC(=O)O)C(=O)N[C@@H](Cc1ccccc1)C(=O)N[C@H](C(=O)N[C@@H](CC(N)=O)C(=O)N[C@@H](Cc1c[nH]c2ccccc12)C(=O)N[C@@H](CC(C)C)C(=O)N[C@@H](CC(C)C)C(=O)N[C@@H](C)C(=O)N[C@@H](CCC(N)=O)C(=O)N[C@@H](CCCCN)C(=O)NCC(=O)N[C@@H](CCCCN)C(=O)N[C@@H](CCCCN)C(=O)N[C@@H](CC(N)=O)C(=O)N[C@@H](CC(=O)O)C(=O)N[C@@H](Cc1c[nH]c2ccccc12)C(=O)N[C@@H](CCCCN)C(=O)N[C@@H](Cc1c[nH]cn1)C(=O)N[C@@H](CC(N)=O)C(=O)N[C@H](C(=O)N[C@H](C(=O)N[C@@H](CCC(N)=O)C(=O)O)[C@@H](C)O)[C@@H](C)CC)C(C)C)[C@@H](C)CC` [Example 17, (3,51-Tyr^1, Aib^2, A5c^11, Nle^14)hGIP(1-42)-OH], the Ki [1] was 77.9 nM, the half-life at 0.1 mg/ml [2] was > 4320 min and the half-life at 0.1 mg/ml [3] was 1810 min.
`CCCC[C@H](NC(=O)[C@H](C)NC(=O)[C@@H](NC(=O)C1(NC(=O)[C@H](Cc2ccc(O)cc2)NC(=O)[C@H](CC(=O)O)NC(=O)[C@H](CO)NC(=O)[C@@H](NC(=O)[C@H](Cc2ccccc2)NC(=O)[C@@H](NC(=O)CNC(=O)[C@H](CCC(=O)O)NC(=O)C(C)(C)NC(=O)[C@@H](N)Cc2ccc(O)c(I)c2)[C@@H](C)O)[C@@H](C)CC)CCCC1)[C@@H](C)CC)C(=O)N[C@@H](CC(=O)O)C(=O)N[C@@H](CCCCN)C(=O)N[C@H](C(=O)N[C@@H](Cc1c[nH]cn1)C(=O)N[C@@H](CCC(N)=O)C(=O)N[C@@H](CCC(N)=O)C(=O)N[C@@H](CC(=O)O)C(=O)N[C@@H](Cc1ccccc1)C(=O)N[C@H](C(=O)N[C@@H](CC(N)=O)C(=O)N[C@@H](Cc1c[nH]c2ccccc12)C(=O)N[C@@H](CC(C)C)C(=O)N[C@@H](CC(C)C)C(=O)N[C@@H](C)C(=O)N[C@@H](CCC(N)=O)C(=O)N[C@@H](CCCCN)C(=O)NCC(=O)N[C@@H](CCCCN)C(=O)N[C@@H](CCCCN)C(=O)N[C@@H](CC(N)=O)C(=O)N[C@@H](CC(=O)O)C(=O)N[C@@H](Cc1c[nH]c2ccccc12)C(=O)N[C@@H](CCCCN)C(=O)N[C@@H](Cc1c[nH]cn1)C(=O)N[C@@H](CC(N)=O)C(=O)N[C@H](C(=O)N[C@H](C(=O)N[C@@H](CCC(N)=O)C(=O)O)[C@@H](C)O)[C@@H](C)CC)C(C)C)[C@@H](C)CC` [Example 16, (3I-Tyr^1, Aib^2, A5c^11, Nle^14)hGIP(1-42)-OH] showed a Ki [1] of 5.03 nM, a half-life at 0.1 mg/ml [2] of 3130 min and a half-life at 0.1 mg/ml [3] of 1110 min.
Work on `CCCC[C@H](NC(=O)[C@H](C)NC(=O)[C@@H](NC(=O)C1(NC(=O)[C@H](Cc2ccc(O)cc2)NC(=O)[C@H](CC(=O)O)NC(=O)[C@H](CO)NC(=O)[C@@H](NC(=O)[C@H](Cc2ccccc2)NC(=O)[C@@H](NC(=O)CNC(=O)[C@H](CCC(=O)O)NC(=O)C(C)(C)NC(=O)[C@@H](N)Cc2c(C)cc(O)cc2C)[C@@H](C)O)[C@@H](C)CC)CCCC1)[C@@H](C)CC)C(=O)N[C@@H](CC(=O)O)C(=O)N[C@@H](CCCCN)C(=O)N[C@H](C(=O)N[C@@H](Cc1c[nH]cn1)C(=O)N[C@@H](CCC(N)=O)C(=O)N[C@@H](CCC(N)=O)C(=O)N[C@@H](CC(=O)O)C(=O)N[C@@H](Cc1ccccc1)C(=O)N[C@H](C(=O)N[C@@H](CC(N)=O)C(=O)N[C@@H](Cc1c[nH]c2ccccc12)C(=O)N[C@@H](CC(C)C)C(=O)N[C@@H](CC(C)C)C(=O)N[C@@H](C)C(=O)N[C@@H](CCC(N)=O)C(=O)N[C@@H](CCCCN)C(=O)NCC(=O)N[C@@H](CCCCN)C(=O)N[C@@H](CCCCN)C(=O)N[C@@H](CC(N)=O)C(=O)N[C@@H](CC(=O)O)C(=O)N[C@@H](Cc1c[nH]c2ccccc12)C(=O)N[C@@H](CCCCN)C(=O)N[C@@H](Cc1c[nH]cn1)C(=O)N[C@@H](CC(N)=O)C(=O)N[C@H](C(=O)N[C@H](C(=O)N[C@@H](CCC(N)=O)C(=O)N[C@@H](Cc1c[nH]cn1)C(=O)O)[C@@H](C)O)[C@@H](C)CC)C(C)C)[C@@H](C)CC` [Example 55, (2,6Me-Tyr^1, Aib^2, A5c^11, Nle^14, His^43)hGIP(1-43)-OH] yielded a Ki [1] of 39 nM, a half-life at 0.1 mg/ml [2] of 2260 min and a half-life at 0.1 mg/ml [3] of 966 min.
Compound `CC[C@H](C)[C@H](NC(=O)[C@H](CCCCN)NC(=O)[C@H](CC(=O)O)NC(=O)[C@H](CCSC)NC(=O)[C@H](C)NC(=O)[C@@H](NC(=O)C1(NC(=O)[C@H](Cc2ccc(O)cc2)NC(=O)[C@H](CC(=O)O)NC(=O)[C@H](CO)NC(=O)[C@@H](NC(=O)[C@H](Cc2ccccc2)NC(=O)[C@@H](NC(=O)CNC(=O)[C@H](CCC(=O)O)NC(=O)C(C)(C)NC(=O)[C@@H](N)Cc2cccc(O)c2)[C@@H](C)O)[C@@H](C)CC)CCCC1)[C@@H](C)CC)C(=O)N[C@@H](Cc1c[nH]cn1)C(=O)N[C@@H](CCC(N)=O)C(=O)N[C@@H](CCC(N)=O)C(=O)N[C@@H](CC(=O)O)C(=O)N[C@@H](Cc1ccccc1)C(=O)N[C@H](C(=O)N[C@@H](CC(N)=O)C(=O)N[C@@H](Cc1c[nH]c2ccccc12)C(=O)N[C@@H](CC(C)C)C(=O)N[C@@H](CC(C)C)C(=O)N[C@@H](C)C(=O)N[C@@H](CCC(N)=O)C(=O)N[C@@H](CCCCN)C(=O)NCC(=O)N[C@@H](CCCCN)C(=O)N[C@@H](CCCCN)C(=O)N[C@@H](CC(N)=O)C(=O)N[C@@H](CC(=O)O)C(=O)N[C@@H](Cc1c[nH]c2ccccc12)C(=O)N[C@@H](CCCCN)C(=O)N[C@@H](Cc1c[nH]cn1)C(=O)N[C@@H](CC(N)=O)C(=O)N[C@H](C(=O)NC1(C(=O)N[C@@H](CCC(N)=O)C(=O)O)CCCC1)[C@@H](C)CC)C(C)C` [Example 26, (30H-Phe^1, Aib^2, A5c^11, 41)hGIP(1-42)-OH] has a Ki [1] of 7.52 nM, a half-life at 0.1 mg/ml [2] of 1570 min and a half-life at 0.1 mg/ml [3] of 2930 min.
